Results as given in PubChem BioAssay (NCI).
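Method: 48-hour compound exposure of cells in 96-well plates, five concentrations, linear interpolation of endpoints. The concentration for full growth arrest is given as TGI.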

Key:
Test in all cases: growth of human tumour cells (NCI), 48 h
OVCAR-4 ovarian = system: OVCAR-4 ovarian
OVCAR-5 ovarian = system: OVCAR-5 ovarian
HCT-15 colon = system: HCT-15 colon
HL-60(TB) leukemia = system: HL-60(TB) leukemia
MDA-MB-231 breast = system: MDA-MB-231 breast
MCF7 breast = system: MCF7 breast
SNB-19 CNS = system: SNB-19 CNS
HOP-62 NSCLC = system: HOP-62 NSCLC
A498 renal = system: A498 renal
DU-145 prostate = system: DU-145 prostate
UO-31 renal = system: UO-31 renal

SMILES | TGI (OVCAR-4 ovarian) | TGI (OVCAR-5 ovarian) | TGI (HCT-15 colon) | TGI (HL-60(TB) leukemia) | TGI (MDA-MB-231 breast) | TGI (MCF7 breast) | TGI (SNB-19 CNS) | TGI (HOP-62 NSCLC) | TGI (A498 renal) | TGI (DU-145 prostate) | TGI (UO-31 renal)
COc1cccc(C2SCC(=O)N2c2ccc(-n3c(-c4ccccc4)nc4ccccc4c3=O)cc2)c1OC (centres undefined) | > 100 µM | > 100 µM | > 100 µM | > 100 µM | > 100 µM | > 100 µM | > 100 µM | > 100 µM | > 100 µM | > 100 µM | > 100 µM
CCOC(=O)/C=C(\C(=O)OCC)n1ccc(=O)n(CC(=O)OCC)c1=O | > 31.2 µM | 10.1 µM | 4.4 µM | 1.22 µM | 17.2 µM | 9.73 µM | 36.7 µM | 38.7 µM | 31.7 µM | 31.1 µM | 17.5 µM
c1ccc2c(c1)nc1n2C2CCC(C2)N1 (centres undefined) | > 10 µM | > 10 µM | > 10 µM | > 10 µM | > 10 µM | > 10 µM | > 10 µM | > 10 µM | > 10 µM | > 10 µM | > 10 µM
Cc1n[nH]c(=O)n1/N=C\CC/C=N\n1c(C)n[nH]c1=O | > 100 µM | > 100 µM | > 100 µM | > 100 µM | > 100 µM | > 100 µM | > 100 µM | > 100 µM | > 100 µM | > 100 µM | > 100 µM
O=C(NCCc1ccccc1)c1c(O)c2ccccc2[nH]c1=O | > 100 µM | > 100 µM | > 100 µM | > 100 µM | > 100 µM | > 100 µM | > 100 µM | > 100 µM | > 100 µM | > 100 µM | > 100 µM
Oc1ccc(/C=C/c2ccc3cccc(O)c3n2)cc1O | > 100 µM | 46.3 µM | > 100 µM | > 100 µM | 62.8 µM | 93.7 µM | 20.9 µM | 84.6 µM | 30 µM | 12.3 µM | 7.71 µM
COc1ccc(C2(O)c3ccccc3C(=O)N(C)C2(O)c2ccc(OC)cc2)cc1 (centres undefined) | > 100 µM | > 100 µM | > 100 µM | > 100 µM | > 100 µM | > 100 µM | > 100 µM | > 100 µM | > 100 µM | > 100 µM | > 100 µM
Nc1ncnc2c1cnn2Cc1cn(COCC(O)CO)nn1 (centres undefined) | > 100 µM | > 100 µM | > 100 µM | > 100 µM | > 100 µM | > 100 µM | > 100 µM | > 100 µM | > 100 µM | > 100 µM | > 100 µM
c1ccc2cc(CNCCOCCOCCNCc3ccc4ccccc4c3)ccc2c1 | 5.78 µM | 4 µM | 3.46 µM | 4.07 µM | 3.11 µM | 3.41 µM | 5.31 µM | 4.01 µM | 3.73 µM | 3.37 µM | –
NC(=O)NC(=O)c1cccc(NC(=O)CF)c1 | > 100 µM | > 100 µM | > 100 µM | > 100 µM | > 100 µM | > 100 µM | > 100 µM | > 100 µM | > 100 µM | > 100 µM | 80.6 µM
CC(C)CC(NC(=O)C(CCI)Cc1ccccc1)C(=O)Nc1ccccc1 (centres undefined) | > 100 µM | > 100 µM | > 100 µM | 64.6 µM | > 100 µM | > 100 µM | > 100 µM | – | > 100 µM | > 100 µM | 84.7 µM
CCN(CC)C(=S)N=Nc1c(O)[nH]c2ccccc12 | 11.9 µM | 25.1 µM | 19.6 µM | 3.7 µM | 8.02 µM | 2.37 µM | 16 µM | 12.6 µM | 3.64 µM | > 100 µM | –
CC1=N[C@](C)(C2CC3C=CC2C3=O)COC1=O (some centres undefined) | > 100 µM | > 100 µM | – | > 100 µM | > 100 µM | > 100 µM | > 100 µM | > 100 µM | > 100 µM | > 100 µM | > 100 µM
O=C(O)CC1OCC=C2CN3CCC45C6=CC(=O)C(=O)C([N+](=O)[O-])=C6NC4C1C2CC35 (centres undefined) | > 100 µM | > 100 µM | > 100 µM | > 100 µM | > 100 µM | > 100 µM | > 100 µM | > 100 µM | > 100 µM | > 100 µM | > 100 µM
O=C(/C=C/c1ccccc1)CSc1nc2ccc(I)cc2c(=O)n1Cc1ccccc1 | > 100 µM | > 100 µM | > 100 µM | 57.2 µM | > 100 µM | > 100 µM | > 100 µM | 59.1 µM | 46.4 µM | > 100 µM | 0.553 µM
CC(C)(C)OC(=O)N/N=C(/N)Cc1ccccc1 | > 100 µM | > 100 µM | > 100 µM | > 100 µM | > 100 µM | > 100 µM | > 100 µM | > 100 µM | > 100 µM | > 100 µM | > 100 µM
O=c1[nH]c(-c2ccccc2)nc2c1sc1nc3ccccc3n12 | > 100 µM | > 100 µM | > 100 µM | > 100 µM | > 100 µM | > 100 µM | > 100 µM | – | > 100 µM | > 100 µM | > 100 µM
CCOP(=O)(OCC)C1=C(c2ccccc2)OC(N)=C(C#N)C1c1ccc(Cl)cc1 (centres undefined) | > 100 µM | > 100 µM | > 100 µM | > 100 µM | > 100 µM | > 100 µM | > 100 µM | > 100 µM | > 100 µM | > 100 µM | > 100 µM

SMILES | TGI (OVCAR-4 ovarian) | TGI (OVCAR-5 ovarian) | TGI (HCT-15 colon) | TGI (HL-60(TB) leukemia) | TGI (MDA-MB-231 breast) | TGI (MCF7 breast) | TGI (SNB-19 CNS) | TGI (HOP-62 NSCLC) | TGI (A498 renal) | TGI (DU-145 prostate) | TGI (UO-31 renal)
O=C1/C(=C/c2ccccc2)CCC/C1=C\c1ccc(O)c(CN2CCCCC2)c1 | 13.8 µM | 37.9 µM | 3.74 µM | > 100 µM | 6.28 µM | 19.2 µM | 26 µM | 32 µM | 12.5 µM | 7.44 µM | 19.7 µM
c1ccc(C2OCC(OC3CCCCO3)CO2)cc1 (centres undefined) | > 100 µM | > 100 µM | > 100 µM | > 100 µM | > 100 µM | > 100 µM | > 100 µM | > 100 µM | > 100 µM | > 100 µM | > 100 µM
O=C1Nc2ccccc2/C1=C/c1c(Cl)[nH]c2ccc(O)cc12 | 38.5 µM | 17.1 µM | 17.5 µM | 5.31 µM | 6.77 µM | 14.8 µM | > 58.8 µM | 19.1 µM | 11.3 µM | 6.69 µM | 28.2 µM
Cn1cnc(N2CCCC2)c(C#N)c1=O | > 100 µM | > 100 µM | > 100 µM | > 100 µM | > 100 µM | > 100 µM | > 100 µM | > 100 µM | > 100 µM | > 100 µM | > 100 µM
NC(CCCCNC(=O)CNC(=O)OCc1ccccc1)C(=O)NC(CCCCNC(=O)CNC(=O)OCc1ccccc1)C(=O)NC(CCCCNC(=O)CNC(=O)OCc1ccccc1)C(=O)NC(CCCCNC(=O)CNC(=O)OCc1ccccc1)C(=O)NC(CCCCNC(=O)CNC(=O)OCc1ccccc1)C(=O)NC(CCCCNC(=O)CNC(=O)OCc1ccccc1)C(=O)O (centres undefined) | > 75 µM | > 75 µM | > 75 µM | > 75 µM | > 75 µM | > 75 µM | > 75 µM | > 75 µM | > 75 µM | > 75 µM | > 75 µM
CCOc1ccc(NCC2CC/C(=C\c3ccc(O)cc3)C2=O)cc1 (centres undefined) | 31.5 µM | 29 µM | 17.8 µM | 5.33 µM | 38.4 µM | 18.1 µM | > 55.2 µM | > 67.1 µM | 38.9 µM | > 59.9 µM | 33.6 µM
O=C1C(=C(I)I)c2ccccc2-c2ccccc21 | 10.9 µM | 17.1 µM | 8.51 µM | > 21.3 µM | 4.31 µM | 13.8 µM | 27.5 µM | 24.3 µM | 30.6 µM | 11.2 µM | 4.7 µM
CC(=O)N(CN1C(=O)CCC1C(=O)O)c1cccc(O)c1 (centres undefined) | > 100 µM | > 100 µM | > 100 µM | > 100 µM | > 100 µM | > 100 µM | > 100 µM | > 100 µM | > 100 µM | > 100 µM | > 100 µM
CCOc1cc2c(cc1OC(C)=O)C(=O)CC[C@H]1C3CC[C@H](OC(C)=O)[C@@]3(C)CC[C@H]21 (some centres undefined) | > 100 µM | > 100 µM | > 100 µM | > 100 µM | > 100 µM | > 100 µM | > 100 µM | > 100 µM | > 100 µM | > 100 µM | > 100 µM
COc1ccc(C(=O)/C=C/c2cccnc2)cc1OC | 25.7 µM | 24.6 µM | 23.9 µM | 6.01 µM | 23.8 µM | 13 µM | 27.6 µM | 28.2 µM | 27.8 µM | 27.8 µM | 26.3 µM
Nc1nc(N)c2[nH]cnc2n1 (tested in a mixture with another compound) | > 100 µM | > 100 µM | > 100 µM | > 100 µM | > 100 µM | 21.7 µM | > 100 µM | > 100 µM | 45.1 µM | > 100 µM | 58.4 µM
COC1=CC(=O)c2c(O)c3c(c(O)c2C1=O)C=C(C)OC3O (centres undefined) | 4.39 µM | 5.73 µM | 2.07 µM | > 23 µM | 5.09 µM | 1.57 µM | 7.12 µM | 7.04 µM | 4.91 µM | 2.18 µM | 13.3 µM
CC(C)/C(Cl)=N\OC(=O)Nc1ccc(F)cc1F | 10.3 µM | 33.5 µM | 21.8 µM | 0.626 µM | 6.34 µM | 13.4 µM | 34.8 µM | 31.8 µM | 31.1 µM | 31.7 µM | 17.8 µM
COC(=O)C1CCC(=O)N1C(c1ccccc1)c1cc(OC)c(OC)c(OC)c1 (centres undefined) | > 100 µM | > 100 µM | > 100 µM | 57.8 µM | > 100 µM | > 100 µM | > 100 µM | > 100 µM | > 100 µM | > 100 µM | > 100 µM
O=C(CNC(=O)OCc1ccccc1)NCCCCC(NC(=O)OCc1ccccc1)C(=O)NC(CCCCNC(=O)CNC(=O)OCc1ccccc1)C(=O)OCc1ccccc1 (centres undefined) | > 62.5 µM | > 62.5 µM | > 62.5 µM | > 62.5 µM | > 62.5 µM | > 62.5 µM | > 62.5 µM | > 62.5 µM | > 62.5 µM | > 62.5 µM | > 62.5 µM
COC(C)(C)CCc1[nH]c2ccccc2c1CC(=O)NCCc1cncn1C | > 100 µM | > 100 µM | > 100 µM | > 100 µM | > 100 µM | > 100 µM | > 100 µM | – | > 100 µM | > 100 µM | > 100 µM
Cc1cc2nc(-c3c(F)cccc3F)n(Cc3c(F)cccc3F)c2cc1C | 40.1 µM | 31.7 µM | 27.6 µM | 42.7 µM | 31 µM | 57.1 µM | 42.7 µM | 28.7 µM | 39.9 µM | 50.5 µM | 23.3 µM
N#Cc1[nH]c(=O)n(-c2cccc3ccccc23)c1N | > 10 µM | > 10 µM | > 10 µM | > 10 µM | > 10 µM | > 10 µM | > 10 µM | > 10 µM | > 10 µM | > 10 µM | –
